Source: patent US12157810B1 (priority 2020, dated 2024)

System: cell culture

Substance: poly(alloocimene-b-isobutylene-b-alloocimene) [AIBA]
- cytotoxicity in cell culture studies: non-cytotoxicity
